Experimental data taken from patent publication US8742117B2, “Oxime derivatives” (Cadila Healthcare Limited, priority 2008, dated 2014).
One block for each compound: values may come before it.

How the values were obtained:
human GPR 119 receptor = biological target: T1, human GPR 119 receptor (Homo sapiens, UniProt Q8TDV5); experiment: cAMP assay in stable cell line expressing recombinant human GPR 119 receptor; type: cell-based; settings: 1 μM; intracellular cAMP, recombinant human GPR 119 cell line
T1 construct: expressed in transfected cells
T1 sequence (Q8TDV5 1-335): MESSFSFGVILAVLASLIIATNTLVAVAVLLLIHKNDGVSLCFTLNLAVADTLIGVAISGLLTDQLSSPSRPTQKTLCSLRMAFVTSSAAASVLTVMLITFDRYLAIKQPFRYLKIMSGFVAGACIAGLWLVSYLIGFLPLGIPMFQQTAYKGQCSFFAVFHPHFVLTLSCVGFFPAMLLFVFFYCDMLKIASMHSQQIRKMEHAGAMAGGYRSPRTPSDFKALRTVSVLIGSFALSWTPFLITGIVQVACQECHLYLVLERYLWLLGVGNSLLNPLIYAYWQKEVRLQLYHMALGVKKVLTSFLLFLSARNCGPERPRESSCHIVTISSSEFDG
From the text: A stable cell line expressing recombinant human GPR 119 receptor was established and used to investigate the efficacy of the compounds of the invention based on the intracellular levels of cyclic AMP (cAMP) using commercially available cAMP kits. Compounds of the invention produced a concentration dependent increase in cAMP level and EC50 values of representative compounds were provided in table 1 and table 2 respectively.

C57/BL6 mice = experiment: Oral glucose tolerance test (OGTT) in C57/BL6 mice; type: in vivo, mouse; settings: 30 mg/kg oral single dose; glucose load 3 gm/kg; serum glucose AUC
Experimental: Oral Glucose Tolerance Tests (OGTT) in C57/BL6 Mice:
C57/BL6 mice of 6-8 week age were used for this experiment. Animals were grouped based on non-fasting serum glucose levels and kept on fasting for overnight (day before OGTT). On the experiment day, each animal received a single dose of vehicle/test compounds (30 mg/kg) were administered orally, 30 min post dosing animals were bled for basal glucose level estimation and at same time glucose load (3 gm/kg) will be administered per orally. Blood was collected at time points corresponding to 20, 40, 60 and 120 min after glucose load administration. Serum was separated for determination of glucose levels and change in area under curve for glucose was calculated and provided in table 3 as % reduction in AUC.

Sprague Dawley rats = experiment: Feed intake in Sprague Dawley rats; type: in vivo, rat; settings: 25 mg/kg i.p., cumulative feed intake vs vehicle control
From the text: In Vivo Efficacy Studies: Feed Intake in Sprague Dawley Rats:
Sprague Dawley rats of 6-8 week age were be used for this experiment they were be kept for acclimatization in reversed light/dark cycle for 15 days. Animals will have free access to a standard chow diet and water during acclimatization period. After 15 days reversed light/dark cycle acclimatization animals were trained for fasting induced feed intake for 5 days till they show consistent feed intake. Grouping was done based on the monitored feed intake the training days. On treatment day each group of animals were dosed with test compound or vehicle by appropriate routes of administration (orally or intraperitoneally). Exactly 30 min. after treatment, measured amount of standard chow diet was provided and recorded as 0-min feed offered. Then subsequently 2, 4, 6 and 24 hour after 0-min, feed intake was measured and the cumulative feed intakes were calculated. The change in cumulative feed intake as compare to vehicle treated control at each time point was calculated for test compound and results were provided in table 2

- % activity at 1 μM (human GPR 119 receptor): 18.5%
SMILES: CC(=NOc1ncnc(N2CCC(c3nc(C(C)C)no3)CC2)c1C)c1ccc2ccccc2c1 [Example 22, 1-(naphthalen-2-yl)ethanone O-6-(4-(3-isopropyl-1,2,4-oxadiazol-5-yl)piperidin-1-yl)-5-methylpyrimidin-4-yl oxime]
- % reduction in food in take 2 hour (Sprague Dawley rats): 30%
- % reduction in food in take 4 hour (Sprague Dawley rats): 43%
- % reduction in food in take 6 hour (Sprague Dawley rats): 44%
- % reduction in food in take 24 hour (Sprague Dawley rats): 14%

- % activity at 1 μM (human GPR 119 receptor): 17.7%
SMILES: CC(=NOc1ncnc(N2CCC(c3nc(C(C)C)no3)CC2)c1[N+](=O)[O-])c1ccc2ccccc2c1 [Example 23, 1-(naphthalen-2-yl)ethanone O-6-(4-(3-isopropyl-1,2,4-oxadiazol-5-yl)piperidin-1-yl)-5-nitropyrimidin-4-yl oxime]
- % reduction in food in take 2 hour (Sprague Dawley rats): 38%
- % reduction in food in take 4 hour (Sprague Dawley rats): 26%
- % reduction in food in take 6 hour (Sprague Dawley rats): 26%
- % reduction in food in take 24 hour (Sprague Dawley rats): 4%

- % activity at 1 μM (human GPR 119 receptor): 79.21%
SMILES: CC(=NOc1ncnc(N2CCC(c3nc(C(C)C)no3)CC2)c1C)c1ccc(C(F)(F)F)cc1 [Example 15, 1-(4-(trifluoromethyl)phenyl)ethanone O-6-(4-(3-isopropyl-1,2,4-oxadiazol-5-yl)piperidin-1-yl)-5-methylpyrimidin-4-yl oxime]
- % reduction in AUC at 30 mg/kg (C57/BL6 mice): 23.4%
- % reduction in food in take 2 hour (Sprague Dawley rats): 41%
- % reduction in food in take 4 hour (Sprague Dawley rats): 27%
- % reduction in food in take 6 hour (Sprague Dawley rats): 24%
- % reduction in food in take 24 hour (Sprague Dawley rats): 11%

More lines, now with the values behind:

SMILES: CC(=NOc1ncnc(N2CCC(c3nc(C(C)C)no3)CC2)c1[N+](=O)[O-])c1ccc(S(C)(=O)=O)cc1F [Example 14, 1-(2-fluoro-4-(methylsulfonyl)phenyl)ethanone O-6-(4-(3-isopropyl-1,2,4-oxadiazol-5-yl)piperidin-1-yl)-5-nitropyrimidin-4-yl oxime]
- % activity at 1 μM (human GPR 119 receptor): 89.97%
- % reduction in AUC at 30 mg/kg (C57/BL6 mice): 20%
- % reduction in food in take 2 hour (Sprague Dawley rats): 53%
- % reduction in food in take 4 hour (Sprague Dawley rats): 48%
- % reduction in food in take 6 hour (Sprague Dawley rats): 37%
- % reduction in food in take 24 hour (Sprague Dawley rats): 16%

SMILES: CC(=NOc1ncnc(N2CCC(c3nc(C(C)C)no3)CC2)c1C)c1ccc(S(C)(=O)=O)cc1F [Example 6, 1-(2-fluoro-4-(methylsulfonyl)phenyl)ethanone O-6-(4-(3-isopropyl-1,2,4-oxadiazol-5-yl)piperidin-1-yl)-5-methylpyrimidin-4-yl oxime]
- % activity at 1 μM (human GPR 119 receptor): 49.55%
- % reduction in AUC at 30 mg/kg (C57/BL6 mice): 20%
- % reduction in food in take 2 hour (Sprague Dawley rats): 57%
- % reduction in food in take 4 hour (Sprague Dawley rats): 52%
- % reduction in food in take 6 hour (Sprague Dawley rats): 33.3%
- % reduction in food in take 24 hour (Sprague Dawley rats): 15.1%

SMILES: COc1ccc(C(C)=NOc2ncnc(N3CCC(c4nc(C(C)C)no4)CC3)c2[N+](=O)[O-])cc1 [Example 7, 1-(4-methoxyphenyl)ethanone O-6-(4-(3-isopropyl-1,2,4-oxadiazol-5-yl)piperidin-1-yl)-5-nitropyrimidin-4-yl oxime]
- % activity at 1 μM (human GPR 119 receptor): 88.99%
- % reduction in food in take 2 hour (Sprague Dawley rats): 53.5%
- % reduction in food in take 4 hour (Sprague Dawley rats): 42%
- % reduction in food in take 6 hour (Sprague Dawley rats): 36%
- % reduction in food in take 24 hour (Sprague Dawley rats): 12.9%

SMILES: CC(=NOc1ncnc(N2CCC(c3nc(C(C)C)no3)CC2)c1C)c1ccc(F)cc1 [Example 8, 1-(4-fluorophenyl)ethanone O-6-(4-(3-isopropyl-1,2,4-oxadiazol-5-yl)piperidin-1-yl)-5-methylpyrimidin-4-yl oxime]
- % activity at 1 μM (human GPR 119 receptor): 64.11%
- % reduction in food in take 2 hour (Sprague Dawley rats): 32%
- % reduction in food in take 4 hour (Sprague Dawley rats): 17%
- % reduction in food in take 6 hour (Sprague Dawley rats): 12%
- % reduction in food in take 24 hour (Sprague Dawley rats): 4%

SMILES: CC(=NOc1ncnc(N2CCC(c3nc(C(C)C)no3)CC2)c1[N+](=O)[O-])c1ccc2c(c1)OCO2 [Example 4, 1-(benzo[d][1,3]dioxol-5-yl)ethanone O-6-(4-(3-isopropyl-1,2,4-oxadiazol-5-yl)piperidin-1-yl)-5-nitropyrimidin-4-yl oxime]
- % activity at 1 μM (human GPR 119 receptor): 47.28%
- % reduction in food in take 2 hour (Sprague Dawley rats): 45.3%
- % reduction in food in take 4 hour (Sprague Dawley rats): 29%
- % reduction in food in take 6 hour (Sprague Dawley rats): 14.1%
- % reduction in food in take 24 hour (Sprague Dawley rats): 0%
